The text below walks through data of EP1350507A1, “Delivery of a substance to a pre-determinated site” (Applied NanoSystems B.V., priority 2002, dated 2003).

In series [1] the test system is COS-7 cells. Kind of series: Toxicity of cationic amphiphile towards the cells (protein determination). The series is classed as cell-based. The note with it: protein determination compared with control wells. Here is the method: (§1) Transfections are carried out following standard protocols as is described in EP 0755924. In numerous publications variations of transfection protocols are given. A person acquainted with the field of non-viral transfections, in particular transfections using cationic amphiphiles will be able to use the cationic amphiphiles of the invention in transfection methods known per se. In standard experiments COS-7 cells are transfected with plasmid DNA containing the β-galactosidase reporter gene. Upon successful transfection the cell produces the enzyme β-galactosidase whose activity can be easily measured. Other plasmids comprising alternative reporter genes such as the gene encoding Green Fluoerscent Protein or Chloroamphenicol Acetyl Transferase are suited as well. For analyzing stable transfection a plasmid containing the neomycin resistance gene can be used. Toxicity of the cationic amphiphiles towards the cells can be monitored qualitatively and quantitatively by visual inspection of the cells and by a protein determination.
The complex of cationic amphiphile/DOPE (1:1) with pCMV β-gal was prepared at the charge ratio 2.5:1 (15 nmol lipid and 1 µg DNA), in 100µl 10 mM HEPES (pH=7.4, 150 mM NaCl). […] Control wells underwent identical steps except that no cationic amphiphile was added. β-galactosidase activity was observed whereas in control wells no activity was detected.

In series [2] the test system is COS-7 cells. Kind of series: Transfection of COS-7 cells with β-galactosidase reporter plasmid. The series is classed as cell-based. Here is the method:
as §1, with “Other plasmids comprising alternative reporter genes such as the gene encoding Green Fluoerscent Protein or Chloroamphenicol Acetyl Transferase are suited as well. For analyzing stable transfection a plasmid containing the neomycin resistance gene can be used.” left out
[…] The plasmid concentration was determined by measuring the absoption at 260 nm using the relation 1.0 OD = 50 µg/ml. […]
The complex of cationic amphiphile/DOPE (1:1) with pCMV β-gal was prepared at the charge ratio 2.5:1 (15 nmol lipid and 1 µg DNA), in 100µl 10 mM HEPES (pH=7.4, 150 mM NaCl). […] Control wells underwent identical steps except that no cationic amphiphile was added. β-galactosidase activity was observed whereas in control wells no activity was detected. […]

Series [3] can be described thus: Solvent scope of N,N'-dialkylaldaramides or N,N'-dialkylpentaramides (gelation behaviour in solvents). The series is classed as physicochemical. From the text: It will be understood that the use of the present gelling agents or thickeners to prepare a gel or to thicken a composition is also encompassed by the invention. As is well-known, gelling behavior of compounds or compositions is highly unpredictable. […] Preferably, the gelling phenomenon is thermoreversible.
(§2) Preferred examples include aromatic and non-aromatic hydrocarbons, alcohols, ethers, esters, aldehydes, alkanoic acids, epoxides, amines, halogenated hydrocarbons, silicon oils, vegetable oils, phosphoric esters, sulfoxides and mixtures thereof. The compound also produces a gel in hydrophilic solvents such as water. The choice of composition for gelling can be tuned to the invented use. For instance in situations where clinical application of a vehicle of the invention is intended biocompatibility of the composition is preferred. In order to obtain a gel, the gelling agent or thickener is preferably mixed with the composition to be transformed to a gel in an amount of between 0.01 and 50 wt.%, based on the weight of the composition. In a preferred embodiment the mixture of the gelling agent or thickener and the composition is heated to allow for an even better gel formation or thickening. Typically, the heating will involve raising the temperature of the mixture to about 30 - 175 °C until a clear solution is obtained. In an alternative embodiment, the gelling agent is first dissolved in a polar or apolar solvent and then added to or sprayed into a composition or solvent to be converted into a gel.

A short description of series [4]: Concentration range of N,N'-dialkylaldaramides or N,N'-dialkylpentaramides in solvents. The series is classed as physicochemical.
Source text: as §2

Series [5] is described as follows: Gelation experiment with dithienylcyclopentene derivatives (heat, cool, no gravitational flow; UV-vis/CD). The conditions noted are these: for Solvents in which gelation did occur: cooling to room temperature, 1 ml solvent. The series is classed as physicochemical. Here is the method:
In a typical gelation experiment, a carefully weighed amount of the dithienylcyclopentene derivative under investigation and 1 ml of the solvent are placed in a test tube, which is sealed and then heated until the compound is dissolved. The solution is allowed to cool to room temperature. […] The gelation process could be followed by UV-vis and CD spectroscopy as depicted in Figure 23. […] Increasing the concentration to 1.8 mM causes gelation of the solvent, which is accompanied by a change of the UV-visible spectrum, together with the appearance of a strong CD signal at 323 nm (Figure 22 A and B). Similar changes in the UV-vis and CD spectrum are observed upon gelation of the 1.8 mM solution of D in toluene by cooling to a temperature below the sol-gel phase transition(from here on referred to as gel(o). From a plot of the increase of the CD signal versus the temperature the sol-gel phase transition temperature of gel(o) was determined to be 29°C for a 1.8 mM solution of D in toluene.

The nature of series [6]: Photoswitching of a gel of compound D. Type of series: physicochemical. Here is the method: In a typical photoswitching experiment a solution (1.8 mM) of Compound D in toluene was prepared by cooling from 70°C to the desired temperature (typically between 30°C and 60°C, i.e. above the gel-sol phase transition temperature of the open form of D) in a cuvette of 1 mm path length. This solution was then irradiated at λ1 = 313 nm to convert the ring-open form of Compound D to the ring-closed form. By using a 150 W Xe lamp and a 313 nm bandpass filter, the photostationary state (PSS) was reached typically within 10 minutes, which consist of 60mol% of the closed form and 40mol% of the open form.
Gels of the closed form of D can also be dissolved by converting the closed form to the open form by irradiation with light of wavelength □□. Irradiation of gel(c,I) or gel(c,II) with □□ > 450 nm at while keeping the temperature between 30°C and 60°C causes dissolution of the gel to give a solution of the open form D, of which the UV-vis and CD spectra are identical to that of the starting solution. This process of gelation-dissolution by alternating irradiations with UV (313 nm) and Vis (> 450 nm) light can be repeated many times, showing that the photo-induced gelation process is fully reversible. In another experiment a solution (1.8 mM) of Compound D in toluene was prepared by cooling from 70°C to a temperature below the gel-sol phase transition temperature of the open form of (typically between 20°C and 29°C) in a cuvette of 1 mm path length.

Where [7] appears, read: 1.8 mM in toluene, irradiation at 313 nm.

Regarding “1-(9'-cis-octadecenyl)-4-(10"-cis-nonadecenyl) pyridinium Chloride”, the “toxicity towards the cells” value in the series with COS-7 cells [1] is recorded as “no toxicity”. Further, the β-galactosidase activity entry in the series with COS-7 cells [2] (cationic amphiphile/DOPE (1:1) with pCMV β-gal, charge ratio 2.5:1, assay 48 later) was “observed”. In the series with COS-7 cells [2] (cationic amphiphile/DOPE (1:1), charge ratio 2.5:1), the “β-galactosidase activity compared with Lipofectin™” value is reported as “substantially higher”.

For `CC(C)=CCCC(C)CCNC(=O)[C@@H](O)[C@@H](O)[C@H](O)[C@@H](O)C(=O)NCCC(C)CCC=C(C)C` (stereo partly shown) [CitGluCit, dicitronellyl glucaramide], in series [3] (Cyclohexane), the Solvent scope entry was “g. ,c*”.

For `CCCCCCCCCCCCNC(=O)[C@@H](O)[C@H](O)[C@H](O)[C@@H](O)C(=O)NCCCCCCCCCCCC` [Compound 12Gal12, didodecyl galactaramide], the Solvent scope result in series [3] (1,2-Dichloro-ethane), in series [3] (Cyclohexane), in series [3] (Ethanol), in series [3] (Toluene), in series [3] (n-Butylacetate) and in series [3] (water) was “n.s” in each case.

Consider `O=C(NC1CCCCC1)[C@@H](O)[C@@H](O)[C@H](O)[C@@H](O)C(=O)NC1CCCCC1` [Compound C6GluC6, dicyclohexyl glucaramide], for which the Concentration range is <5.0% in series [4] (1,2- Dichloroethane); <2.5% in series [4] (Cyclohexane); <2.5% in series [4] (Dow Corning 702); <2.5% in series [4] (Methyllaurate); <2.5% in series [4] (Toluene); <2.5% in series [4] (n-Butylacetate). Further, the Solvent scope result was “g/c” in series [3] (1,2-Dichloro-ethane), “g/c” in series [3] (Dimethylsulfoxide), “g/c” in series [3] (Ethanol) and “n.s” in series [3] (water).

Turning to `O=C(NC1CCCCCCCCCCC1)[C@@H](O)[C@@H](O)[C@H](O)[C@@H](O)C(=O)NC1CCCCCCCCCCC1` [Compound C12GluC12, dicyclododecyl glucaramide], the Concentration range was <50% in series [4] (1,2- Dichloroethane); <5% in series [4] (Cyclohexane); <50% in series [4] (Dow Corning 702); <5% in series [4] (Methyllaurate); <50% in series [4] (Toluene); <50% in series [4] (n-Butylacetate). Also, the Solvent scope result was “g/c” in series [3] (Dimethylsulfoxide), “g/c” in series [3] (Ethanol) and “n.s” in series [3] (water).

Regarding `Cc1sc(C(=O)Nc2ccccc2)cc1C1=C(c2cc(C(=O)Nc3ccccc3)sc2C)CCC1` [Compound C, 1,2-Bis(5'-(anilinocarbonyl)-2'-methyl-thien-3'-yl) cyclopentene], the “Solvents in which gelation did occur” value in series [5] is listed as 1-phenyloctane, toluene, n-butylether, benzene, tetralin.

Regarding `Cc1sc(C(=O)N[C@H](C)c2ccccc2)cc1C1=C(c2cc(C(=O)N[C@H](C)c3ccccc3)sc2C)CCC1` [Compound D, 1,2-Bis(2'-methyl-5'-{[((R)-1-phenylethyl)amino]carbonyl}thien-3'-yl)cyclopentene], the “sol-gel phase transition temperature of gel(o)” value in series [5] (1.8 mM solution in toluene, open form, from CD signal versus temperature) was 29 °C. Besides, the “Concentration that causes gelation of the solvent” value in series [5] (Toluene) was determined as 1800 µM. Further, in series [5], the “Solvents in which gelation did occur” value was “cyclohexane, 1-phenyloctane, toluene, n-butyl ether, benzene, tetralin”. In addition, the “sol-gel phase transition temperature of gel(c,I)” value in series [6] (1.8 mM in toluene after irradiation at 313 nm) came to 62 °C. Further, the “Time without gel formation, solutions kept in the dark” value in series [6] (1.8 mM in toluene, between 20°C and 29°C, not irradiated) was > 1 h. In series [6] (setting [7]), the “closed form in the photostationary state (PSS)” value was 60 mol% and the “open form in the photostationary state (PSS)” value came out at 40 mol%. The “Time to reach the photostationary state (PSS)” value in series [6] (1.8 mM in toluene, irradiation at 313 nm, 150 W Xe lamp) was ≤ 10 min. The “Increase of thermal stability compared to gel(o)” value in series [6] (gel(c,I), toluene) is “more than 30 °C”.

As to `Cc1sc(C(=O)N[C@H](C)C2CCCCC2)cc1C1=C(c2cc(C(=O)N[C@H](C)C3CCCCC3)sc2C)CCC1` [Compound E, 1,2-Bis(2'-methyl-5'-{[((R)-1-cyclohexylethyl)amino]carbonyl}thien-3'-yl)cyclopentene], the “Solvents in which gelation did occur” value in series [5] is “hexadecane, cyclohexane, 1-phenyloctane, toluene, n-butylether, benzene, tetralin, 1,4-dioxane, and n-butyl acetate”.
